Data taken from patent US11279733B2, “Peptide antibiotics” (priority 2017, dated 2022).
Like-named read-outs stand apart in the source and are kept apart here.

Legend:
A. baumannii ATCC 19606 = system: A. baumannii ATCC 19606
In short: (§1)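 Mid-log cultures grown in Mueller Hinton broth at 37° C were tested by 2-fold broth microdilution at 5×10^5 CFU/mL final. Compounds were dissolved in water and tested over a final range of 32 to 0.015 μg/mL.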

A. baumannii GN_093 PmxR = system: A. baumannii GN_093 PmxR
In short: as §1

E. coli ATCC 25922 = system: E. coli ATCC 25922
In short: as §1

K. pneumoniae ATCC 13883 = system: K. pneumoniae ATCC 13883
In short: as §1

[1] = system: K. pneumoniae ATCC 700603, MDR
In short: as §1

[2] = system: K. pneumoniae ATCC BAA-2146, NDM-1 pos
In short: as §1

[3] = system: K. pneumoniae GN_102 PmxR
In short: as §1

[4] = system: K. pneumoniae GN_106, PmxR
In short: as §1

P. aeruginosa ATCC 27853 = system: P. aeruginosa ATCC 27853
In short: as §1

[5] = system: P. aeruginosa GN_043, PmxR
In short: as §1

[6] = system: P. aeruginosa GN_105, PmxR
In short: as §1

[7] = system: S. aureus ATCC 25923, MSSA
In short: as §1

HepG2 cells = assay: Cytotoxicity, resazurin assay, HepG2
In short: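 Cells were seeded at 4000 per well and allowed to attach for 24 h at 37 °C, 5% CO2, then exposed to compounds for 24 h. Resazurin (5 μM) was added for 2 h at 37 °C and fluorescence read at 560/590 nm. CC50 was derived by curve fitting of dose-dependent growth inhibition.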

Substance: polymyxin B sulfate [PolymyxinB, reference compound]
- MIC A. baumannii ATCC 19606 (A. baumannii ATCC 19606): 0.25 µg/mL
- MIC A. baumannii ATCC 19606 (A. baumannii ATCC 19606; A. baumannii ATCC 19606): 0.25 µg/mL
- MIC, A. baumannii ATCC 19606 (A. baumannii ATCC 19606; Table 5): 0.25 µg/mL
- MIC, A. baumannii ATCC 19606 (A. baumannii ATCC 19606; Table 6): 0.25 µg/mL
- MIC A. baumannii GN_093 PmxR (A. baumannii GN_093 PmxR): 64 µg/mL
- MIC A. baumannii GN_093 PmxR (A. baumannii GN_093 PmxR; A. baumannii GN_093 PmxR): 64 µg/mL
- MIC, A. baumannii Cl Ptyela 10073 4512:2, PmxR (A. baumannii GN_093 PmxR; Table 5, polymyxin-resistant): 64 µg/mL
- MIC A. baumannii GN_093 PmxR (A. baumannii GN_093 PmxR; Table 6, polymyxin-resistant): 64 µg/mL
- MIC A. baumannii GN_093 PmxR (A. baumannii GN_093 PmxR; polymyxin-resistant): 64 µg/mL
- MIC A. baumannii Cl Ptyela 10073 4512:2, PmxR (A. baumannii GN_093 PmxR; strain name as in Table 11): 64 µg/mL
- MIC E. coli ATCC 25922 (E. coli ATCC 25922): 0.25 µg/mL
- MIC E. coli ATCC 25922 (E. coli ATCC 25922; E. coli ATCC 25922): 0.25 µg/mL
- MIC, E. coli ATCC 25922 (E. coli ATCC 25922; Table 5): 0.25 µg/mL
- MIC, E. coli ATCC 25922 (E. coli ATCC 25922; Table 6): 0.25 µg/mL
- MIC K. pneumoniae ATCC 13883 (K. pneumoniae ATCC 13883): 1 µg/mL
- MIC K. pneumoniae ATCC 13883 (K. pneumoniae ATCC 13883; K. pneumoniae ATCC 13883): 1 µg/mL
- MIC, K. pneumoniae ATCC 13883 (K. pneumoniae ATCC 13883; Table 5): 1 µg/mL
- MIC, K. pneumoniae ATCC 13883 (K. pneumoniae ATCC 13883; Table 6): 1 µg/mL
- MIC K. pneumoniae ATCC 700603, MDR [1]: 0.5 µg/mL
- MIC K. pneumoniae ATCC 700603, MDR ([1]; K. pneumoniae ATCC 700603, MDR): 0.5 µg/mL
- MIC, K. pneumoniae ATCC 700603, MDR ([1]; Table 5): 0.5 µg/mL
- MIC, K. pneumoniae ATCC 700603, MDR ([1]; Table 6): 0.5 µg/mL
- MIC K. pneumoniae ATCC BAA-2146, NDM-1 pos [2]: 0.25 µg/mL
- MIC K. pneumoniae ATCC BAA-2146, NDM-1 pos ([2]; K. pneumoniae ATCC BAA-2146, NDM-1 pos): 0.25 µg/mL
- MIC, K. pneumoniae ATCC BAA-2146, NDM-1 pos ([2]; Table 5): 0.25 µg/mL
- MIC, K. pneumoniae ATCC BAA-2146, NDM-1 pos ([2]; Table 6): 0.25 µg/mL
- MIC K. pneumoniae GN_102 PmxR [3]: 64 µg/mL
- MIC K. pneumoniae GN_102 PmxR ([3]; K. pneumoniae GN_102 PmxR): 64 µg/mL
- MIC, K. pneumoniae Cl Koprana 10065 0661:1, PmxR ([3]; Table 5, polymyxin-resistant): 64 µg/mL
- MIC K. pneumoniae GN_102 PmxR ([3]; Table 6, polymyxin-resistant): 64 µg/mL
- MIC K. pneumoniae GN_102 PmxR ([3]; polymyxin-resistant): 64 µg/mL
- MIC K. pneumoniae Cl Koprana 10065 0661:1 PmxR ([3]; strain name as in Table 11): 64 µg/mL
- MIC K. pneumoniae GN_106, PmxR [4]: 64 µg/mL
- MIC K. pneumoniae GN_106, PmxR ([4]; K. pneumoniae GN_106, PmxR): 64 µg/mL
- MIC, K. pneumoniae Cl 138-16347-20362, PmxR ([4]; Table 5, polymyxin-resistant): 64 µg/mL
- MIC K. pneumoniae GN_106, PmxR ([4]; Table 6, polymyxin-resistant): 64 µg/mL
- MIC K. pneumoniae GN_106, PmxR ([4]; polymyxin-resistant): 64 µg/mL
- MIC K. pneumoniae Cl 183-16357-20352, PmxR ([4]; strain name as in Table 11): 64 µg/mL
- MIC P. aeruginosa ATCC 27853 (P. aeruginosa ATCC 27853): 0.5 µg/mL
- MIC P. aeruginosa ATCC 27853 (P. aeruginosa ATCC 27853; P. aeruginosa ATCC 27853): 0.5 µg/mL
- MIC, P. aeruginosa ATCC 27853 (P. aeruginosa ATCC 27853; Table 5): 0.5 µg/mL
- MIC, P. aeruginosa ATCC 27853 (P. aeruginosa ATCC 27853; Table 6): 0.5 µg/mL
- MIC P. aeruginosa GN_043, PmxR [5]: 64 µg/mL
- MIC P. aeruginosa GN_043, PmxR ([5]; P. aeruginosa GN_043, PmxR): 64 µg/mL
- MIC, P. aeruginosa FADDI-PA070, PmxR ([5]; Table 5, polymyxin-resistant): 64 µg/mL
- MIC P. aeruginosa GN_043, PmxR ([5]; Table 6, polymyxin-resistant): 64 µg/mL
- MIC P. aeruginosa GN_043, PmxR ([5]; polymyxin-resistant): 64 µg/mL
- MIC, P. aeruginosa FADDI-PA070, PmxR ([5]; strain name as in Table 11): 64 µg/mL
- MIC P. aeruginosa GN_105, PmxR [6]: >128 µg/mL
- MIC P. aeruginosa GN_105, PmxR ([6]; P. aeruginosa GN_105, PmxR): >128 µg/mL
- MIC, P. aeruginosa PA9704, PmxR ([6]; Table 5, polymyxin-resistant): >128 µg/mL
- MIC P. aeruginosa GN_105, PmxR ([6]; Table 6, polymyxin-resistant): >128 µg/mL
- MIC P. aeruginosa GN_105, PmxR ([6]; polymyxin-resistant): >128 µg/mL
- MIC P. aeruginosa PA9704, PmxR ([6]; strain name as in Table 11): >128 µg/mL
- MIC S. aureus ATCC 25923, MSSA [7]: >64 µg/mL
- MIC S. aureus ATCC 25923, MSSA ([7]; S. aureus ATCC 25923, MSSA): >64 µg/mL
- MIC, S. Aureus ATCC 25923, MSSA ([7]; Table 5): >64 µg/mL
- MIC, S. aureus ATCC 25923, MSSA ([7]; Table 6): >64 µg/mL
- CC50 (HepG2 cells; read-out: Hep G2-CC50, HepG2, 24 h): > 300 µM
- CC50 (HepG2 cells; read-out: Hep G2-CC50, HepG2 cells): > 300 µM
- CC50 (HepG2 cells; read-out: Hep G2-CC50, Table 5, HepG2 cells): > 300 µM
- CC50 (HepG2 cells; read-out: Hep G2-CC50, Table 6, HepG2 cells): > 300 µM
- CC50 (HepG2 cells; read-out: Hep G2 CC50, HepG2 cells): > 300 µM
